Test in all cases: ≥ marks a high value that may be exact or a test limit, other limits are often not marked, values filed in µg/mL are converted to µM
For experiment [1], the system named is Bacillus cereus ATCC 11778.
Experiment [2] has as its system Escherichia coli ATCC 25922.
Experiment [3] has as its system Klebsiella pneumoniae ATCC 700603.
Experiment [4] deals with Pseudomonas aeruginosa ATCC 27853.
Experiment [5] relates to Salmonella enterica subsp. enterica serovar Enteritidis ATCC 13076.
For experiment [6], the system named is Serratia marcescens ATCC 21202.
Experiment [7] deals with Staphylococcus aureus ATCC 29213.
Experiment [8] has as its system Streptococcus pyogenes ATCC 19615.
Experiment [9] concerns Candida albicans CPCC 400416.
In experiment [10] the test system is Escherichia coli CPCC 100521.
Experiment [11] deals with Staphylococcus aureus CPCC 100520.
For experiment [12], the system named is Aspergillus niger ATCC 16404.
In experiment [13] the test system is Candida albicans ATCC 10231.
Experiment [14] relates to Candida glabrata ATCC 15126.
Experiment [15] deals with Enterococcus faecalis PCM 2673.
Experiment [16] concerns Escherichia coli ATCC 23506.
Experiment [17] deals with Pseudomonas aeruginosa ATCC 9027.
Experiment [18] relates to Staphylococcus aureus ATCC 25923.
In experiment [19] the test system is Staphylococcus aureus ATCC 9144.
Experiment [20] deals with Streptococcus pneumoniae ATCC 49619.
In experiment [21] the test system is Alcaligenes faecalis ATCC 8750.
Experiment [22] deals with Bacillus megaterium CICC 10448.
For experiment [23], the system named is Bacillus subtilis CICC 10034.
In experiment [24] the test system is Enterobacter cloacae CICC 21539.
The test system of experiment [25] is Escherichia coli CGMCC 3373.
Experiment [26] deals with Escherichia coli CICC 10293.
Experiment [27] has as its system Escherichia coli CICC 10300.
In experiment [28] the test system is Escherichia coli CICC 10302.
Experiment [29] relates to Listeria innocua CICC 10417.
The subject of experiment [30] is Pseudomonas aeruginosa CICC 21636.
Experiment [31] has as its system Salmonella enterica subsp. enterica serovar Paratyphi B CICC 10437.
Experiment [32] deals with Serratia marcescens ATCC 4112.
The subject of experiment [33] is Staphylococcus aureus CICC 10306.
For experiment [34], the system named is Staphylococcus aureus CICC 10384.
For experiment [35], the system named is Escherichia coli K-12.
The test system of experiment [36] is Klebsiella pneumoniae.
In experiment [37] the test system is Pseudomonas aeruginosa PA-W14.
Experiment [38] relates to Pseudomonas aeruginosa PA-W1.
Experiment [39] deals with Pseudomonas aeruginosa PAO1.
Experiment [40] relates to Staphylococcus aureus NCTC 8325-4.
Experiment [41] has as its system Staphylococcus aureus.

In brackets after ≈: the same amount, converted by molar mass.

With `CSCC[C@H](NC(=O)[C@H](CO)NC(=O)[C@H](CS)NC(=O)[C@@H](NC(=O)[C@H](CCC(=O)O)NC(=O)[C@H](CC(C)C)NC(=O)[C@H](CC(C)C)NC(=O)[C@@H]1CCCN1C(=O)[C@H](CC(C)C)NC(=O)[C@@H](N)C(C)C)[C@@H](C)O)C(=O)N[C@H](C(=O)N[C@@H](CS)C(=O)N[C@@H](Cc1c[nH]c2ccccc12)C(=O)N[C@@H](CCC(=O)O)C(=O)N[C@@H](CC(N)=O)C(=O)N[C@@H](CC(N)=O)C(=O)N[C@@H](CCC(N)=O)C(=O)N[C@H](C(=O)N[C@@H](Cc1ccccc1)C(=O)NCC(=O)N[C@@H](CCCCN)C(=O)O)[C@@H](C)O)[C@@H](C)O` [VLPLLETCSMTCWENNQTFGK], the MIC was no less than 41.4 µM in experiment [1]; greater than 41.4 µM in experiment [2]; greater than 41.4 µM in [3]; greater than 41.4 µM in experiment [4]; no less than 41.4 µM in experiment [5]; no less than 41.4 µM in [6]. For the same molecule, the values for the MIC in experiment [7] and in [8] were greater than 41.4 µM and no less than 41.4 µM, respectively.
As for `CC[C@H](C)[C@H](N)C(=O)N[C@H](C(=O)NCC(=O)N1CCC[C@H]1C(=O)N[C@H](C(=O)N[C@@H](CC(C)C)C(=O)NCC(=O)N[C@@H](CC(C)C)C(=O)N[C@H](C(=O)NCC(=O)N[C@@H](CCCCN)C(=O)N[C@@H](C)C(=O)N[C@@H](CC(C)C)C(=O)NCC(=O)NCC(=O)N[C@@H](CC(C)C)C(=O)N[C@@H](CC(C)C)C(N)=O)[C@@H](C)CC)C(C)C)[C@@H](C)CC` [IIGPVLGLIGKALGGLL], the MIC in experiment [9] was no less than 160 µM; in experiment [10], no less than 639 µM; in [11] it was no less than 160 µM.
Regarding `CC[C@H](C)[C@H](NC(=O)[C@H](C)NC(=O)[C@H](CCC(=O)O)NC(=O)[C@H](CO)NC(=O)[C@@H](N)Cc1ccccc1)C(=O)N[C@@H](CCCCN)C(=O)N[C@@H](CCCCN)C(=O)N[C@H](C(=O)N[C@H](C(=O)N[C@@H](CC(=O)O)C(=O)N[C@@H](Cc1ccccc1)C(=O)N[C@@H](CC(C)C)C(=O)NCC(N)=O)[C@@H](C)CC)[C@@H](C)CC` [FSEAIKKIIDFLG], the MIC is no less than 173 µM in [12]; greater than 173 µM in experiment [13]; no less than 173 µM in experiment [14]; no less than 173 µM in [15]; no less than 173 µM in experiment [16]; 173 µM (≈ 256 µg/mL) in [2]. The MIC in [3] was 86.4 µM (≈ 128 µg/mL); in [17], greater than 173 µM; in experiment [18], greater than 173 µM; in [19], no less than 173 µM; in experiment [20], no less than 173 µM.
In the case of `CC[C@H](C)[C@H](NC(=O)[C@H](C)N)C(=O)NCC(=O)N[C@@H](Cc1cnc[nH]1)C(=O)N[C@@H](CS)C(=O)N[C@@H](CC(C)C)C(=O)NCC(=O)N[C@@H](C)C(=O)N[C@H](C(=O)N[C@@H](CC(C)C)C(=O)O)[C@@H](C)O` [AIGHCLGATL], the MIC in experiment [21] was 8.38 µM; in experiment [22], 8.38 µM; in experiment [23], no less than 33.5 µM; in experiment [24] it was 4.19 µM; in experiment [25], 8.38 µM; in experiment [26] it was 8.38 µM. The MIC in experiment [27] is 8.38 µM; in experiment [28], 8.38 µM; in experiment [29], no less than 33.5 µM; in experiment [30], 4.19 µM; in experiment [31], 8.38 µM; in [32], 8.38 µM. In addition, the minimal inhibitory concentration (MIC) in [33] and in experiment [34] was no less than 33.5 µM in each case.
Consider `NCCCC[C@H](NC(=O)[C@H](CCCCN)NC(=O)[C@H](Cc1c[nH]c2ccccc12)NC(=O)[C@H](Cc1c[nH]c2ccccc12)NC(=O)[C@H](CCCCN)NC(=O)[C@H](CCCCN)NC(=O)[C@H](Cc1c[nH]c2ccccc12)NC(=O)[C@H](Cc1c[nH]c2ccccc12)NC(=O)[C@H](CCCCN)NC(=O)[C@H](CCCCN)NC(=O)[C@@H](N)Cc1c[nH]c2ccccc12)C(=O)N[C@@H](Cc1c[nH]c2ccccc12)C(N)=O` [WKKWWKKWWKKW], for which the MIC in [35] amounted to 15.6 µM (≈ 29.7 µg/mL); in experiment [36], 15.6 µM (≈ 29.7 µg/mL); in experiment [37], 31.3 µM (≈ 59.6 µg/mL); in experiment [38], 15.6 µM (≈ 29.7 µg/mL); in experiment [39], 15.6 µM (≈ 29.7 µg/mL); in experiment [40] it was 7.81 µM (≈ 14.9 µg/mL). The molecule also had a minimal inhibitory concentration (MIC) in experiment [41] of 7.81 µM (≈ 14.9 µg/mL).

By MIC is commonly meant the lowest concentration that inhibits growth of the organism. Low values mean greater potency, high ones weaker potency.
